Data from the supplement of paper PMC10307832.

Legend:
Assay in all cases: relative viability (nuclei count vs DMSO), 5 days (fraction); higher = more cells survive
[1] = compound: CC1=CC(=NN1)NC2=CC(=NC(=N2)/C=C/C3=CC=CC=C3)N4CCN(CC4)C
How it was run: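 Lung cancer cell lines in 1536-well plates were exposed by pinning to five library-drug doses (not always all listed) √10 apart, following an overnight hold at 37 °C. MetaXpress counted Hoechst-stained nuclei from 4× images taken after 5 days without medium change. Viability is the median ratio of treated-well to vehicle-well nuclei across plates. Plates required control CV below 25% and at least one doubling.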

[2] = compound: CC1=CC(=NN1)NC2=CC(=NC(=N2)/C=C/C3=CC=CC=C3)N4CCN(CC4)C + CCNC(=O)c1noc(-c2cc(C(C)C)c(O)cc2O)c1-c1ccc(CN2CCOCC2)cc1 [Luminespib] (partner 0.01 µM)
How it was run: (§1)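 Lung cancer cell lines were pin-tool dosed in 1536-well plates on the day after seeding, with either a lone drug or a fixed anchor-drug dose plus five library-drug doses (not always all listed) in √10 steps. Nuclei were counted on 4× images after 5 days. Relative viability is the ratio of treated-well to vehicle-well nuclei counts, with each value a median of duplicate plates.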

Bortezomib + Olaparib = compound: CC(C)C[C@H](NC(=O)[C@H](Cc1ccccc1)NC(=O)c1cnccn1)B(O)O [Bortezomib] + O=C(c1cc(Cc2n[nH]c(=O)c3ccccc23)ccc1F)N1CCN(C(=O)C2CC2)CC1 [Olaparib] (partner 8 µM)
How it was run: as §1

Bortezomib + Trametinib = compound: CC(C)C[C@H](NC(=O)[C@H](Cc1ccccc1)NC(=O)c1cnccn1)B(O)O [Bortezomib] + CC(=O)Nc1cccc(-n2c(=O)n(C3CC3)c(=O)c3c(Nc4ccc(I)cc4F)n(C)c(=O)c(C)c32)c1 [Trametinib] (partner 0.02 µM)
How it was run: as §1

Cell Line	relative viability ([1]; 0.08 µM)	relative viability ([1]; 0.253 µM)	relative viability ([1]; 0.8 µM)	relative viability ([1]; 2.53 µM)	relative viability ([1]; 8 µM)	relative viability ([2]; first compound 0.08 µM)	relative viability ([2]; first compound 0.253 µM)	relative viability ([2]; first compound 0.8 µM)	relative viability ([2]; first compound 2.53 µM)	relative viability ([2]; first compound 8 µM)	relative viability (Bortezomib + Olaparib; first compound 0.0002 µM)	relative viability (Bortezomib + Olaparib; first compound 0.000632 µM)	relative viability (Bortezomib + Olaparib; first compound 0.002 µM)	relative viability (Bortezomib + Olaparib; first compound 0.006325 µM)	relative viability (Bortezomib + Olaparib; first compound 0.02 µM)	relative viability (Bortezomib + Trametinib; first compound 0.0002 µM)	relative viability (Bortezomib + Trametinib; first compound 0.000632 µM)	relative viability (Bortezomib + Trametinib; first compound 0.002 µM)	relative viability (Bortezomib + Trametinib; first compound 0.006325 µM)	relative viability (Bortezomib + Trametinib; first compound 0.02 µM)
PC-3 [JPC-3]	1.03	1.07	1.09	1.04	0.726	0.684	0.834	0.736	0.686	0.549	1.08	1.14	0.451	0.236	0.216	0.639	0.756	0.41	0.252	0.202
PC-14	1	1.07	0.968	0.427	0.104	0.169	0.158	0.12	0.121	0.0829	0.239	0.282	0.323	0.0333	0.0494	0.788	0.799	0.356	0.0475	0.0434
RERF-LC-KJ	0.979	0.964	0.932	0.555	0.279	1.33	1.2	0.944	0.269	0.264	0.803	1.02	0.728	0.286	0.199	0.868	0.863	0.823	0.395	0.199
SK-LU-1	1.05	1.09	0.962	0.455	0.143	0.204	0.192	0.136	0.148	0.0748	0.477	0.442	0.462	0.198	0.149	0.505	0.436	0.43	0.202	0.173
SK-MES-1	0.998	1.09	0.941	0.475	0.162	0.61	0.888	0.391	0.144	0.131	0.649	0.839	0.521	0.171	0.159	0.506	0.546	0.533	0.215	0.158
SW 900	0.665	0.844	0.856	0.459	0.262	0.164	0.136	0.159	0.168	0.11	0.855	0.63	0.213	0.148	0.173	0.587	0.578	0.167	0.155	0.145
SW 1573	0.935	0.952	0.826	0.299	0.0971	0.421	0.259	0.179	0.105	0.0707	0.421	0.408	0.319	0.0537	0.0441	0.55	0.612	0.291	0.074	0.0469
UMC-11	0.928	0.904	0.693	0.187	0.141	0.903	0.996	0.715	0.182	0.125	0.441	0.398	0.348	0.189	0.133	0.731	0.845	0.574	0.296	0.132
